Where a SMILES comes first, the peptide text is derived from it. The star is where a group is joined. Cbz = O=C(OCc1ccccc1)*
How the values were obtained:
HIV-1 US, SS and MS RNAs = test: qRTPCR of HIV-1 RNAs in 293T cells transfected with pHxbc2 R-/RI-; assay type: cell-based; details: 20 nM, 24 h, 293T (Figure S6)
Description: Samples were processed and assayed as previously described using the BioRad Aurum Total RNA Lysis Kit (BioRad) as per manufacturer’s instructions with the addition of Turbo DNase (Ambion). Purified RNA (0.5–2 μg) was reverse transcribed using M-MLV (Invitrogen) to generate complementary DNA (cDNA). HIV-1 and actin mRNA levels in DMSO- and compound-treated samples were quantified by qPCR using the Mastercycler ep realplex (Eppendorf) as described by Wong et al.. Gene quantification was evaluated using the absolute quantification method, normalized to β-actin expression, and expressed relative to DMSO-treatment.
Additional file 1: Figure S1. […] Cell viability was measured by an XTT assay. […] Cells were analyzed after 24 h incubation with the compounds at the indicated concentrations ranging between 0–47 μM (791), 0–5 μM (833), or 0–62.5 μM (892). Results are expressed as the percentage (%) of viable cells relative to DMSO treatment ±SEM of two independent experiments performed in triplicate. […] Images are cropped to show a representative field of view. b The dose range of the compounds which inhibit HIV-1 GagGFP expression in HeLa rtTA HIVGagGFP C7 cells was measured by mean fluorescence intensity and expressed relative to fluorescence intensity in DMSO-treated samples (N ≥ 3, *p ≤ 0.05, **p ≤ 0.01, and ***p ≤ 0.001). […]

[1] = system: HIV-1 Tat (p14, p16) and Gag; test: Rescue of Tat/Gag expression by proteasome inhibitor MG132; assay type: cell-based; details: MG132 10 μM for 8 h, with 791, 833 or 892
Description: To assess effect of compounds on HIV-1 Tat stability, the decay of HIV-1 Tat levels was compared between DMSO-treated and compound-treated protein lysates in the presence of cycloheximide. In the first set of experiments, HIV-1 gene expression was induced with doxycylin (dox) for 24 h then 10 μg/mL cycloheximide was added to block new protein synthesis in combination with either DMSO or the compounds. Cells were harvested every 2 h and Tat protein levels measured by western blot. Quantification of the relative intensity of the detected bands was performed using ImageLab software (BioRad) and normalized to corresponding bands of the loading control (GAPDH) from at least three independent experiments. To determine whether the compounds’ effect on HIV-1 gene expression could be reversed by inhibition of the proteasome, compound treatment assay was performed as previously described with the addition of 10 μM MG132 (Sigma-Aldrich) to compound-treated cells 8 h prior to harvesting. Equal amounts of protein were run on 13 or 14% gels by SDS-PAGE, blotted and probed with antibodies for Tat and GAPDH. Quantification of the relative intensity of the detected bands was performed using ImageLab software (BioRad) and normalized to corresponding bands of the loading control (GAPDH) from at least three independent experiments.

[2] = system: total protein synthesis in HeLa HIVrtTA∆Mls cells; test: SUnSET total protein synthesis; assay type: cell-based; details: negative control
Description: The effect of the compounds on nascent protein synthesis was measured by surface sensing of translation (SUnSET) as described by Schmidt et al.. Cells were incubated with puromycin, an aminoacyl tRNA analog, to allow puromycin incorporation into newly translated peptides and prevention of further ribosomal elongation by chain termination. To assess the effect of the compounds on protein translation, cells were prepared and treated as described above, but were incubated with 10 μg/mL of puromycin for a period of 30 min prior to harvesting cell lysates for protein analysis. Protein concentration of cell lysates was quantified by Bradford assay and equal amounts of protein (30–35 μg) was run on either 10% or 4–15% (gradient) gels. Following transfer to PVDF (BioRad), blots were probed with mouse monoclonal antibody to puromycin (anti-12D10, EMD Millipore). Blots were developed using ECL Plus (Perkin-Elmer) or Clarity (BioRad) and imaged using the ChemiDoc MP Imager (BioRad). To quantify the levels of protein synthesis, the volume intensity in each lane of compound-treated sample was calculated relative to the DMSO-treated sample and normalized to GAPDH loading control using ImageLab software (BioRad) from at least four independent experiments.

p53 = system: p53; set-up: method as in PMID 27283735; details: cited from earlier work

CCC(=C/[C@H](C)C/C=C/C(C)=C/[C@@H](C)C(=O)[C@@H](C)[C@H](O)[C@@H](C)C/C(C)=C/C(=O)O)/C=C/[C@@H]1OC(=O)C=C[C@@H]1C [leptomycin B]
HIV-1 MS RNA abundance (HIV-1 US, SS and MS RNAs): little or no change
HIV-1 US and SS RNA levels (HIV-1 US, SS and MS RNAs): dramatic reduction

CC(C)C[C@@H](C=O)NC(=O)[C@H](CC(C)C)NC(=O)[C@H](CC(C)C)NC(=O)OCc1ccccc1 [MG132, reference compound] (Cbz-Leu-Leu-Leu-aldehyde)
production of HIV-1 Gag on addition of MG132 [1]: did not restore

C[C@@H]1C[C@@H]([C@H](O)CC2CC(=O)NC(=O)C2)C(=O)[C@@H](C)C1 [cycloheximide, reference compound]
puromycin signal (newly synthesized polypeptides) [2]: little

COc1cc(/C=C/C(=O)CC(=O)/C=C/c2ccc(O)c(OC)c2)ccc1O [curcumin]
Tat and p53 levels (p53): reduces

— PMC5267425, “Identification of small molecule modulators of HIV-1 Tat and Rev protein accumulation” (Retrovirology, 2017)
